According to patent US12286418B2, “Compounds and methods for treating or preventing bacterial infections” (priority 2019, dated 2025):

Key:
OXA-10 = OXA-10 (Pseudomonas aeruginosa, UniProt P14489); assay: Inhibition of other OXA enzymes (nitrocefin reporter): OXA-10; type: biochemical
Experimental: (§1) Compounds were tested for inhibition of a given OXA enzyme from hydrolyzing nitrocefin using a Tecan plate reader. […] A control with no compound was included in each run. For each compound concentration, the velocity of nitrocefin hydrolysis was determined at 482 nm and fit to the Morrison equation. […] The average Ki of separate experiments, each of which consisted of duplicate runs, is reported and error was quantified as the standard deviation.
(§2) The high sequence diversity of class D β-lactamases has made it difficult to find a class-wide inhibitor. The inhibition activity of CDD-97 was tested against other OXA-enzymes of varying sequence identity, to assess its spectrum of activity (Table 2). OXA-10 is regarded as the canonical OXA, however it is not a major clinical threat as it mainly hydrolyzes penicillins. OXA-58 is another carbapenemase unable to hydrolyze extended-spectrum cephalosporins like OXA-48. Both OXA-48 and OXA-58 are predominantly found in gram-negative bacteria, however OXA-48 is prevalent in the Enterobacteriaceae family (mainly Klebsiella pneumoniae), while OXA-58 is found in the Moraxellaceae family (mainly Acintobacter baumannii). While K. pneumoniae is more rampant in the clinics and most OXA-mediated carbapenem is due to OXA-48, A. baumannii nosocomial infections are a growing issue. OXA-163 is an OXA-48 like enzyme also prevalent in Enterobacteriaceae. […]

OXA-58 = target: T1, OXA-58 (Acinetobacter baumannii, UniProt Q2TR58); assay: Inhibition of other OXA enzymes (nitrocefin reporter): OXA-58; type: biochemical
T1 construct: His-tag (N, cleaved yes); made in house; host or cells: E. coli BL21 (DE3), pET28a
T1 sequence (Q2TR58 19-280): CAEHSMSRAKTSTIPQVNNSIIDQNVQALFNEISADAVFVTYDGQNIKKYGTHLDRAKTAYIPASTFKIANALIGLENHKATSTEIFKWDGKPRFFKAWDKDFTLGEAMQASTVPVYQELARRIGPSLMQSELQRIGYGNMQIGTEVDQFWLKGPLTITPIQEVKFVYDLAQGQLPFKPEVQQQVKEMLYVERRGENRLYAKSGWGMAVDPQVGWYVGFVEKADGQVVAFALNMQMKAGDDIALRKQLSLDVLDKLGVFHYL
Experimental: as §1, §2

E. coli MG1655 = assay: Accumulation assay in E. coli (LC-MS/MS); type: cell-based; conditions: wildtype E. coli MG1655, 10 minutes incubation
Experimental: For the accumulation assay, the protocol from Richter, et al., 2017, Nature 545:299-304 was followed. An overnight culture of bacteria grown in LB Lennox, was inoculated into fresh media and grown to an OD600 of 0.5-0.6. Cells were pelleted, resuspended in 1× phosphate-buffered saline (PBS) and then incubated with the compound of interest for 10 minutes at 37°. After incubation, the OD600 was recorded to note if compounds affected cell growth and then the cultures were centrifuged down through a 9:1 mixture of silicone oil (viscosity=20 cST) to high temperature silicone oil which was cooled at −80°. Cell pellets were isolated and lysed by 3 cycles of freeze-thawing using liquid nitrogen and a 65° water bath. The cell lysate was isolated from the cell debris (in water and methanol) and then analyzed via mass spectrometry. […] Multiple reaction monitoring (MRM) was used to quantify these compounds. […] The concentrations of these compounds were calculated on the basis of their corresponding standard curves.
To determine the colony forming units (CFU) per mL based on the OD600, the OD600 of E. coli MG1655 culture in LB-Lennox was measured then the culture was diluted and plated to count colonies. Based on this, the CFU per mL for 1 O.D.600 (for MG1655 cells grown in LB-Lennox) was determined to be approximately 2.15×10^8 and this value was used for accumulation calculations. […]

OXA-163 = OXA-163 (Klebsiella pneumoniae, UniProt Q6XEC0, DEL214-217/S212D); assay: Inhibition of other OXA enzymes (nitrocefin reporter): OXA-163; type: biochemical, Enterobacteriaceae
OXA-163, sequence (Q6XEC0 23-211, added parts left off, stated change not applied): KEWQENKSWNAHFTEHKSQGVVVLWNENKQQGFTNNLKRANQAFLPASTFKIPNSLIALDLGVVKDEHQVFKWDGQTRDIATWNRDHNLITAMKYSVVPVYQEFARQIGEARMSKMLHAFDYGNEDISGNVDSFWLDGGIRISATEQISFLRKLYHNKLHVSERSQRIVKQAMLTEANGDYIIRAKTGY
Experimental: as §1, §2

OXA-48 = OXA-48 (Klebsiella pneumoniae, UniProt Q6XEC0); assay: Surface plasmon resonance binding to immobilized 6x-His-OXA-48; design: His-tag (N, cleaved yes); made in house; host or cells: E. coli BL21(DE3), pET28a; conditions: SPR
OXA-48, sequence (Q6XEC0 23-265, looked up): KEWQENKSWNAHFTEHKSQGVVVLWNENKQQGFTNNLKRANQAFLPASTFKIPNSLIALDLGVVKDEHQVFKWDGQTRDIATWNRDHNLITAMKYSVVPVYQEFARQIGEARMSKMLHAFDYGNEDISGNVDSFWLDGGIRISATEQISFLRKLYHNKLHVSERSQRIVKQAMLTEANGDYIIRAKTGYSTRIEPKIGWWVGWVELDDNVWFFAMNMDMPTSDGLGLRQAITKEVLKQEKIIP
Experimental: 6×-His-OXA-48 was capture/amine-coupled on a Ni-NTA Chip at a density of ˜5000 RU. Running buffer was 10 mM HEPES pH 7.4, 150 NaCl, 50 mM NaHCO3, 0.005% Tween-20, 2% DMSO. Concentration gradients of each compound were created from 0-15 μM using OneStep Injections in at least triplicates for meropenem and CDD-97.
Synthon-derivatives were created, without DNA tags, based on high OXA-48 enrichment and minimal NTC enrichment. The activity of these derivatives was assessed using inhibition assays with purified OXA-48. Compounds were tested for the ability to inhibit OXA-48 from hydrolyzing nitrocefin, a chromogenic β-lactam substrate routinely used in β-lactamase inhibition assays. Nitrocefin contains a conjugated ring system that is readily hydrolyzed and produces a visible color shift from yellow to red upon hydrolysis (O'Callaghan, et al., 1972, Antimicrob. Agents Chemother. 1:283-288). The rate of nitrocefin hydrolysis in the presence of a constant amount of OXA-48 and increasing concentrations of a given compound of interest was monitored at 482 nm. These rates were plotted against compound concentration to determine the inhibition constant (Ki) against OXA-48. Compounds with promising activity were also assessed for binding using surface plasmon resonance (SPR). SPR was performed using 6×-His-OXA-48 enzyme that was amine-coupled on a Ni-NTA Chip. Meropenem, which covalently binds and inhibits OXA-48, was used as a positive control.

OXA-10, sequence (P14489 20-266): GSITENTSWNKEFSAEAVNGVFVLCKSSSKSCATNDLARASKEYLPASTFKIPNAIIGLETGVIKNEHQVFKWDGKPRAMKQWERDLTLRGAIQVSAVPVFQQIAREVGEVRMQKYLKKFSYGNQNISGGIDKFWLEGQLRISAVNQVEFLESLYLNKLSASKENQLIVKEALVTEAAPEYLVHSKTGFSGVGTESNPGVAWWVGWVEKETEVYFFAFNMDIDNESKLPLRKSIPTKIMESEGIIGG

CCOc1ccccc1N1CCN(c2ncnc(N3CCC(C(=O)O)CC3)n2)CC1 [CDD-97, 1-(4-(4-(2-ethoxyphenyl)piperazin-1-yl)-1,3,5-triazin-2-yl)piperidine-4-carboxylic acid]
Ki (OXA-10): 61 ± 27 µM
Ki fold less potent than against OXA-48 (OXA-10; OXA-10 vs OXA-48): about 100 fold
Ki (OXA-58): 45 ± 0.8 µM
Ki fold less potent than against OXA-48 (OXA-58; OXA-58 vs OXA-48): about 100 fold
accumulation in cells, fold lower levels compared to tetracycline (E. coli MG1655): 20 fold
Ki (OXA-163): 0.44 ± 0.02 µM
KD fold lower (weaker) than that of Meropenem (OXA-48; OXA-48): ~3 fold
Kd (OXA-48; immobilized His-OXA-48): 1.2 ± 0.004 µM
